Like-named read-outs stand apart in the source and are kept apart here.
Tests used:
[1] = test system: primarily cultured rat hepatocytes; assay: Influence on cell density-dependent proliferation of primarily cultured rat hepatocytes; format: cell-based; details: cell densities 1-10×10^4 cells/cm^2; NIK-333 10^−9, trans 10^−7, GGP 10^−6 mol/L; four hours; FIG. 2
Text: Hepatocytes isolated by the same method as that of Example 1 were inoculated at cell densities of 1, 2, 3.3, 5, 7, and 10×10^4 cells/cm^2. NIK-333 (10^−9 mol/L), trans (10^−7 mol/L), cis (10^−6 mol/L), GG (10^−7 mol/L), and GGP (10^−6 mol/L) were each added to the hepatocytes pre-cultured in the same manner as that of Example 1.

[2] = test system: cell lines derived from human hepatoma (HuH-7, JHH-7, HLF, Hep G2); assay: Influence on proliferation of cell lines derived from human hepatoma (WST-1 live cell count); format: cell-based; details: 10^−11 to 10^−7 mol/L, cultured overnight, FIG. 3
Experimental: The cells were inoculated on a 96-well plate at a cell density of 1×10^4 cells/mL, and cultured overnight at 37° C. in the presence of 5% CO2. […] The cells were cultured overnight at 37° C. in the presence of 5% CO2, and live cell count was measured. The live cell count was measured by using Cell Counting Kit (Wako Pure Chemical Industries). […] Absorbance was measured for each well at a measurement wavelength of 450 nm and a reference wavelength of 655 nm using a microplate reader.

[3] = test system: 70% partially hepatectomized rat (PH rat); assay: Liver regeneration in 70% partially hepatectomized rat (PH rat); format: in vivo; details: 0.4 mg/kg/day p.o.
Experimental: Hepatocyte proliferation promoting effect of NIK-333 was examined by using a 70% partially hepatectomized rat (partial hepatectomy: PH rat) as an in vivo experiment system.
Wistar male rats (weight: 130 to 170 g) were subjected to 70% partial hepatectomy according to the method of Higgins G. M. et al. (Arch. Pathol., 12, pp. 186-202, 1931) to prepare PH rats. NIK-333 (solvent was soybean oil, 0.4 mg/kg/day) was orally administered to these PH rats once per day, the administration was repeated and continued for 1 to 14 days, and reaction was observed over time. The model animals fed for 1 to 14 days after the hepatectomy were subjected to abdominal section under diethyl ether anesthesia, and the remaining livers were extracted. The remaining livers were separated into normal hepatic tissues and necrotizing hepatic tissues (liver tissues which were not excisable by the partial hepatectomy and remained), and weight of each was measured (wet weight). The examination was performed for three animals for each group, and the results are indicated as average±standard error. Student t-test was performed between a solvent administered group (soybean oil, 4 mL/kg, p.o.) as a control group and the NIK-333 administered group. The significance level of the test was set at 5% and 1% on both sides.

[4] = test system: primarily cultured mouse hepatocytes; details: cited from earlier work
[5] = test system: rat partially hepatectomized model; details: rat partially hepatectomized model (Non-patent document 9); cited from earlier work
hepatoma = details: long-term administration over one year (Non-patent document 6); cited from earlier work
[6] = test system: primarily cultured rat hepatocytes; assay: Effect of promoting proliferation of primarily cultured rat hepatocytes (number of nuclei); details: FIG. 1; for effect of promoting proliferation of primarily cultured rat hepatocytes (number of nuclei): 10^−11 to 10^−7 (and 10^−8 as printed) mol/L, four hours after addition, 3.3×10^4 cells/cm^2, vs solvent control
Experimental: (§1) Wistar male rats (weight: 200 to 205 g) were used, and hepatocytes were isolated by the in situ collagenase perfusion technique according to the method of Seglen et al. (Methods. Cell Biol., 13, pp. 29-83, 1975). The isolated hepatocytes were suspended in the Williams' medium E (containing 0.1 μg/mL aprotinin, 100 U/mL of penicillin G, 0.1 mg/mL of streptomycin, and 0.1 nmol/L of dexamethasone) containing 5% bovine neonate serum 3 times for washing, and then inoculated on a collagen coated culture dish (35 mm Φ) at a cell density of 3.3×10^4 cells/cm^2. The cells were adhered to the culture dish by culturing them at 37° C. for 3 hours in the presence of 5% CO2 to prepare a primarily cultured hepatocyte cell line. Survival rate of the isolated hepatocytes was obtained by the trypan blue exclusion method, and those showing a survival rate not lower than 93% were used for the following experiments.
(§2) Four hours after the addition of the agents, number of nuclei was measured as follows. The hepatocytes were washed with PBS, and then added with 0.25 mL of a 0.1 mol/L citric acid solution containing 0.1% Triton X-100. The cells were incubated at 37° C. for 30 minutes to solubilize the cell membranes and thereby obtain naked nuclei. The same volume of a PBS solution containing 0.3% trypan blue was further added, and number of the stained nuclei was measured with a hemacytometer.

[7] = test system: primarily cultured rat hepatocytes
Experimental: as §1, §2

[8] = test system: mouse liver carcinogenic model; details: reported; cited from earlier work

SMILES | cell proliferation promoting action with increasing cell density [1] | proliferation promotion action for human hepatoma cell strains (live cell count) [2] | recovery of liver weight compared with the control group ([3]; 1 to 14 days) | hyperproliferation exceeding the value of the Sham group ([3]; 14th day after PH) | increase rate of liver weight ([3]; 3 days after PH) | liver weight ([3]; 3 days after PH, g liver weight/100 g body weight) | effect on proliferation of primarily cultured mouse hepatocytes ([4]; at a concentration inducing apoptosis of hepatoma cells (Non-patent documents 7 and 8)) | DNA synthesis of regenerated liver [5] | recurrence of hepatoma after radical cure (hepatoma) | effect of promoting proliferation of primarily cultured rat hepatocytes (number of nuclei) [6] | relative strength of the proliferation promoting effect among the tested agents ([6]; comparison of NIK-333, trans, cis, GG, GGP) | effect of promoting proliferation of primarily cultured rat hepatocytes (number of nuclei) [7] | proliferation of mouse hepatocytes ([4]; reported, no concentration given) | oncogenesis in mouse liver carcinogenic model [8]
CC(C)=CCC/C(C)=C/CC/C(C)=C/C=C/C(C)=C/C(=O)O [NIK-333, (2E,4E,6E,10E)-3,7,11,15-tetramethyl-2,4,6,10,14-hexadecapentaenoic acid] | decreased with the increase of the cell density | no proliferation promotion action | earlier recovery of liver weight | not observed | 85% | 3.0 g LW/BW | does not affect proliferation | delays DNA synthesis | significantly suppressed | significant effect of promoting proliferation | strongest effect |  |  | 
CC(C)=CCC/C(C)=C/CC/C(C)=C/CC/C(C)=C/COP(=O)(O)OP(=O)(O)O.N.N.N [GGP, geranylgeranyl pyrophosphate ammonium salt, reference compound] | decreased with the increase of the cell density |  |  |  |  |  |  |  |  | significant effect of promoting proliferation |  |  |  | 
CC1=C(/C=C/C(C)=C/C=C/C(C)=C/C(=O)O)C(C)(C)CCC1 [trans, all-trans-retinoic acid] | gave the cell proliferation promoting action even when the cell density was increased |  |  |  |  |  |  |  |  |  |  | significant effect of promoting proliferation | induce the proliferation of mouse hepatocytes | promote oncogenesis

— patent publication US8455546B2, “Medicament having promoting action on hepatocyte proliferation” (Josai University Educational Corporation, priority 2007, dated 2013)
